Test results as given in the NIST ThermoML archive (doi:10.1021/je030130y).
± gives the expanded uncertainty stated by the source.

Key:
[1] = 101.3 kPa, Liquid; for viscosity: Capillary tube (Ostwald / Ubbelohde) method; for mass density: Pycnometric method
[2] = xn = mol fraction of the nth substance listed; conditions: 101.3 kPa, Liquid; for viscosity: Capillary tube (Ostwald / Ubbelohde) method; for mass density: Pycnometric method

c1ccccc1 [benzene]
[1]
Conditions	mass density [kg/m3]	viscosity [mPa·s]
298.15 K	873.4 ± 0.5	0.603 ± 0.006
303.15 K	868.2 ± 0.5	0.568 ± 0.005
308.15 K	862.9 ± 0.5	0.531 ± 0.005
313.15 K	857.4 ± 0.5	0.5 ± 0.005

c1ccccc1 [benzene] + CN(C)C=O
[2], x2 = 0
Conditions	mass density [kg/m3]	viscosity [mPa·s]
298.15 K	873.4 ± 0.5	0.603 ± 0.006
303.15 K	868.2 ± 0.5	0.568 ± 0.005
308.15 K	862.9 ± 0.5	0.531 ± 0.005
313.15 K	857.4 ± 0.5	0.5 ± 0.005

c1ccccc1 [benzene] + Clc1ccccc1
[2], x1 = 1
Conditions	mass density [kg/m3]	viscosity [mPa·s]
298.15 K	873.4 ± 0.5	0.603 ± 0.006
303.15 K	868.2 ± 0.5	0.568 ± 0.005
308.15 K	862.9 ± 0.5	0.531 ± 0.005
313.15 K	857.4 ± 0.5	0.5 ± 0.005

Clc1ccccc1 [chlorobenzene]
[1]
Conditions	mass density [kg/m3]	viscosity [mPa·s]
298.15 K	1100.9 ± 0.4	0.756 ± 0.006
303.15 K	1095.8 ± 0.4	0.714 ± 0.006
308.15 K	1090.8 ± 0.4	0.673 ± 0.005
313.15 K	1085.1 ± 0.4	0.635 ± 0.005

CN(C)C=O [dimethylformamide]
[1]
Conditions	mass density [kg/m3]	viscosity [mPa·s]
298.15 K	944.5 ± 0.3	0.803 ± 0.006
303.15 K	939.8 ± 0.3	0.756 ± 0.006
308.15 K	935.1 ± 0.3	0.71 ± 0.005
313.15 K	930.2 ± 0.4	0.673 ± 0.005

CN(C)C=O [dimethylformamide] + Clc1ccccc1
[2], x1 = 1
Conditions	mass density [kg/m3]	viscosity [mPa·s]
298.15 K	944.5 ± 0.3	0.803 ± 0.006
303.15 K	939.8 ± 0.3	0.756 ± 0.006
308.15 K	935.1 ± 0.3	0.71 ± 0.005
313.15 K	930.2 ± 0.4	0.673 ± 0.005
